# Entries after “also recorded” stand apart in the source; their conditions may differ.
# Columns and labels:
# ErbB-4 = ErbB-4 (Homo sapiens, UniProt Q15303); assay: ELISA protein tyrosine kinase inhibition, ErbB-4; type: biochemical; details: for IC50: ELISA, Poly(Glu, Tyr) 4:1 substrate, ATP 5 μM, test samples at 10-5 mol/l, read-out: ErbB4 inhibitory activity (IC50 class)
# Text: (§1) Determining the Effect of Test Samples at a Concentration of 10-5 Mol/l on the Activity of the Substrate Phosphoryation Catalyzed by EGFR (Epidermal Growth Factor Receptor 1), ErbB-2 (Epidermal Growth Factor Receptor 2), ErbB-4, KDR (Vascular Endothelial Growth Factor Receptor 2) Protein Tyrosine Kinases at Molecular Level
# (§2) Enzyme-Linked Immunosorbent Assay (ELISA)
# (§3) Main instrument: wavelength-tunable microplate reader (VERSAmax).
# (§4) Main reagents: kinase reaction substrate Poly(Glu, Tyr) 4:1 from Sigma; anti-phosphotyrosine monoclonal antibody PY99 from Santa Cruz; horseradish peroxidase-labeled goat anti-mouse IgG from Calbiochem; ATP, DTT, OPD from Amresco, and ELISA plate from Corning.
# (§5) Poly(Glu, Tyr)4:1 as an enzyme substrate was diluted by potassium ion-free PBS into 20 μg/ml, and an ELISA plate was coated and subjected to reaction for 12-16 h at 37° C. After the liquid in wells was removed, the plate was washed three time by T-PBS, 5 min for each time. The ELISA plate was then dried in an oven at 37° C. The coated wells were added with the test samples: the test samples were prepared for a stock solution with a concentration of 1×10^−2M in DMSO. The aliquot solution was stored at −20° C., and diluted to the desired concentration with reaction buffer before use. The resulting solution was added into the wells so that the final concentration of 10-5 mol/l in 100 μL reaction system can be obtained. At the same time, a positive control well was set up and a positive control compound Su11248 was added. ATP and test tyrosine kinases were added: ATP solution diluted with reaction buffer was added (the final concentration of ATP is 5 μM). Finally, the test tyrosine kinases solution diluted with reaction buffer was added. The total volume of the reaction system was […]. Meanwhile, a negative control well and a control well without enzyme were set up. The reaction system was placed in a wet box, and shaked for 1 hour at 37° C., shielding from light. After the reaction was complete, the plate was washed by T-PBS three times. Antibody PY99 was added at 100 μL/well; and the plate was shaked for 30 min at 37° C. After the reaction was complete, the plate was washed with T-PBS three times. Horseradish peroxidase-labeled goat anti-mouse IgG was added at 100 μL/well, and the plate was shaked for 30 min at 37° C. The plate was washed with T-PBS three times. OPD developing liquid was added at 100 μL/well, and reacted for 1-10 min at room temperature, shielding from light. 50 μL of 2 M H2SO4 was added to stop the reaction. A492 value was determined using wavelength-tunable microplate reader. The inhibition ratio of the samples can be calculated by the following equation: […]
# [1] = target: ErbB-2 (Epidermal Growth Factor Receptor 2) (Homo sapiens, UniProt P04626); assay: ELISA protein tyrosine kinase inhibition, ErbB-2; type: biochemical; details: Poly(Glu, Tyr) 4:1 substrate, ATP 5 μM, test samples at 10-5 mol/l, read-out: ErbB2 inhibitory activity (IC50 class)
# Text: as §1, §2, §3, §4, §5
# [2] = target: EGFR (Epidermal Growth Factor Receptor 1) (Homo sapiens, UniProt P00533); assay: ELISA protein tyrosine kinase inhibition, EGFR; type: biochemical; details: for IC50: ELISA, Poly(Glu, Tyr) 4:1 substrate, ATP 5 μM, test samples at 10-5 mol/l, read-out: EGFR inhibitory activity (IC50 class)
# Text: as §1, §2, §3, §4, §5
# [3] = target: KDR (Vascular Endothelial Growth Factor Receptor 2) (Homo sapiens, UniProt P35968); assay: ELISA protein tyrosine kinase inhibition, KDR; type: biochemical; details: for IC50: ELISA, Poly(Glu, Tyr) 4:1 substrate, ATP 5 μM, test samples at 10-5 mol/l, read-out: KDR inhibitory activity (IC50 class)
# Chain of KDR (Vascular Endothelial Growth Factor Receptor 2) (P35968 20-1356): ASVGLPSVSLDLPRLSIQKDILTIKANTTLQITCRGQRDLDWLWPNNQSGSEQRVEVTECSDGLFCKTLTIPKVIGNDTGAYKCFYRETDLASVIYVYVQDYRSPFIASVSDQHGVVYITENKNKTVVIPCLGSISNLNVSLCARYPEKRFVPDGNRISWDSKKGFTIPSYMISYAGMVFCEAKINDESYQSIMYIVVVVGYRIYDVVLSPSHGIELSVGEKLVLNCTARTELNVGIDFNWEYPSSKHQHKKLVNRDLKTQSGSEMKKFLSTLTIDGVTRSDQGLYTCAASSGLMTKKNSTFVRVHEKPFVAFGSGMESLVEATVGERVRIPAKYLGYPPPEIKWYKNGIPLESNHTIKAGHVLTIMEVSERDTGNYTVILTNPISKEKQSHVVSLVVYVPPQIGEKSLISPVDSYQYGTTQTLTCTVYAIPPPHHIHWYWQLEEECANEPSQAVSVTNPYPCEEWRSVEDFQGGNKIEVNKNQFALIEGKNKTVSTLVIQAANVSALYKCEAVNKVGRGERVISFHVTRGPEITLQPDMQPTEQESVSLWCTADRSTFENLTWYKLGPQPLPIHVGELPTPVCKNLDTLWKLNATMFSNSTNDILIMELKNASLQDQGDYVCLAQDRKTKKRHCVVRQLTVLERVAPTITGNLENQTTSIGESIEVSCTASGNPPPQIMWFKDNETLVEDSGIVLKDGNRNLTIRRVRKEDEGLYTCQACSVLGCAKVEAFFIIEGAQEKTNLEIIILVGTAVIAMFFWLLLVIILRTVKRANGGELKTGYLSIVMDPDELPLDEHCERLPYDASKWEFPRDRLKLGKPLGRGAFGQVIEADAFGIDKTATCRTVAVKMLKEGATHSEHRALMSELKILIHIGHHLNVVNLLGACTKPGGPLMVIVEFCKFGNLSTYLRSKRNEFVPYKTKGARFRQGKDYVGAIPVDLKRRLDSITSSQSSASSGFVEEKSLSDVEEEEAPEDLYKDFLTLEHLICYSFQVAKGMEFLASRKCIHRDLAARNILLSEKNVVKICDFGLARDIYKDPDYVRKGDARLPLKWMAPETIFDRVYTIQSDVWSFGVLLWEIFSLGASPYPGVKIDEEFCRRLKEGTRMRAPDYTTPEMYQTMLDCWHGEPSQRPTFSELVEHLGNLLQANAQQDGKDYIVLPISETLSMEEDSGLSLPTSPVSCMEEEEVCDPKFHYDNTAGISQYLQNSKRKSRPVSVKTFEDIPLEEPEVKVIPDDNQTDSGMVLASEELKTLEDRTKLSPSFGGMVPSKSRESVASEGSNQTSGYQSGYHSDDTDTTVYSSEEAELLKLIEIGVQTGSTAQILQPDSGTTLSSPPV
# Text: as §1, §2, §3, §4, §5
# [4] = system: human lung cancer A549 xenograft; assay: Growth inhibition of A549 xenograft in nude mice; type: in vivo; details: for growth inhibition of human lung cancer A549 compared with positive control lapatinib (in words): xenograft in nude mice, 200 mg/kg
# Text: Objective of the test: Determining the inhibition of some compounds of the present invention to the growth of human lung cancer A549 transplanted into nude mice and the action intensity thereof.
# 1. Human lung cancer A549 xenograft in nude mice, which was set up by subcutaneously transplantion of the human lung cancer A549 cell lines into right axillary fossa of nude mice. The amount of inoculation is 2×10^6 cells/mouse. Xenograft inoculated into the nude mice was passaged for 3 generations before use.
# 2. The solvent used in the experiments is: 0.5% of hydroxypropylmethyl cellulose and 0.1% of Tween-80.
# 3. Vigorous growing tumor tissues were selected to be chopped into approximately 1 mm^3. Under sterile conditions, the tumor tissue blocks were subcutaneously transplanted into right axillary fossa of nude mice. The diameters of the xenograft in nude mice were measured with a vernier caliper. When tumors reached approximately 100-300 mm^3 in size, the animals were randomly divided into groups, wherein there are 12 animals in solvent control group, and 6 animals per group in the other groups. […] The administered dosages were both 200 mg/kg, 5 times per week for consecutive four weeks. The diameters of the tumors were measured twice per week. The negative control group was intragastricly administrated the same amount of solvent. After the experiment, the mice were sacrificed. The tumors were surgically stripped and weighed. The tumor volume (TV) was calculated by the following equation:
# [formula] in which a and b represents for the length and the width respectively.
# According to the measured results, the relative tumor volume (RTV) was calculated. The calculation equation was: RTV=Vt/V0, wherein V0 is the tumor volume measured during cage administration (i.e. d0), Vt is the tumor volume of each measurement. The evaluation index of anti-tumor activity was the relative tumor growth ratio T/C (%), which was calculated by the following equation: […]
# TRTV: treatment group's RTV; CRTV: negative control group's RTV.
# Chain of ErbB-4 (Q15303 26-1308): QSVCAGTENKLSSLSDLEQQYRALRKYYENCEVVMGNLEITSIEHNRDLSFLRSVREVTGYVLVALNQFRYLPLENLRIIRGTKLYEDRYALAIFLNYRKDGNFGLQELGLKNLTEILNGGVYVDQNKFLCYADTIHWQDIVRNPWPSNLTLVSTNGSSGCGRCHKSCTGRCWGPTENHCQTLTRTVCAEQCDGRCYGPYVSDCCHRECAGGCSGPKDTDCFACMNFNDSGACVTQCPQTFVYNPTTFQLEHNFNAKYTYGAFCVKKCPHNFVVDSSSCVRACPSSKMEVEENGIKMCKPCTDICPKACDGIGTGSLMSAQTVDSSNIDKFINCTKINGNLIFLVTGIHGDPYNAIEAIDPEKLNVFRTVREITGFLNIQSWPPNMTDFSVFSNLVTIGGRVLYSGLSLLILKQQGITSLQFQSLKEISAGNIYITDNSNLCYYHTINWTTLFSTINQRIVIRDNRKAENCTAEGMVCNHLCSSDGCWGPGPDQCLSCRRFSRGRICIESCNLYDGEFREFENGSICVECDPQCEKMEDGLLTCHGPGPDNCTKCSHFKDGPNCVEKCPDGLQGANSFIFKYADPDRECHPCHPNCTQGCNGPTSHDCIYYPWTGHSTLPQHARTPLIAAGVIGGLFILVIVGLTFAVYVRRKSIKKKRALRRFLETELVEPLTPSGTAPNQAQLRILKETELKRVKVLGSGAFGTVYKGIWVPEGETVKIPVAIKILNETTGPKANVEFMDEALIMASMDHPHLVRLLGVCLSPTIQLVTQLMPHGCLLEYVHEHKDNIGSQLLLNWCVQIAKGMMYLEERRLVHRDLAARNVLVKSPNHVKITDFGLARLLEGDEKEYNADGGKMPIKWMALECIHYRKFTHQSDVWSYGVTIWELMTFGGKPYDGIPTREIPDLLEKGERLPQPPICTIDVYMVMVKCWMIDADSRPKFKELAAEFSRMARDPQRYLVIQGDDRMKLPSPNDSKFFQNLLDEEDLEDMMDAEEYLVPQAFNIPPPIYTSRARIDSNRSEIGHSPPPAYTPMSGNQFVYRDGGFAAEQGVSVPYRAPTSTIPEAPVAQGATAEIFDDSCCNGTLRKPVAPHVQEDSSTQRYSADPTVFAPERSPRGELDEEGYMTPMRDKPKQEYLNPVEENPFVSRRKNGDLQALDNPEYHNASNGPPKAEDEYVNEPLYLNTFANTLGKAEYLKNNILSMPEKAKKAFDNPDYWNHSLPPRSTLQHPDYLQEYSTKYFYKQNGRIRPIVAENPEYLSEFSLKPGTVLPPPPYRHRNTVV
compound,measurement,setting,value
N-(3-chloro-4-((3-fluorobenzyl)oxy)phenyl)-6-(5-((4-methylpiperazinyl)methyl)-2-pyrrolidinyl)-4-quinazolinamine [MS 34],inhibition of c-ErbB4/HER4 (in words),ErbB-4,very good inhibition
same,IC50,ErbB-4,< 10 µM
same,IC50,[1],< 10 µM
same,inhibitory activity against EGFR (in words),[2],better inhibitory activity
same,IC50,[2],< 10 µM
CC(=O)OCCNCc1ccc(-c2ccc3ncnc(Nc4ccc(OCc5cccc(F)c5)c(Cl)c4)c3c2)o1,IC50,[3],< 10 µM
same,IC50,ErbB-4,< 10 µM
same,IC50,[1],< 10 µM
same,IC50,[2],< 10 µM
"OCCN(CCO)Cc1ccc(-c2ccc3ncnc(Nc4ccc(OCc5cccc(F)c5)c(Cl)c4)c3c2)o1 [MS18, N-(3-chloro-4-((3-fluorobenzyl)oxy)phenyl)-6-(5-((bis(2-hydroxyethyl)amino)methyl)-2-furyl)-4-quinazolinamine]",inhibitory activity against KDR (in words),[3],better inhibitory activity; also recorded: higher inhibitory activity
"Fc1cccc(COc2ccc(Nc3ncnc4ccc(-c5ccc(CNCC6CCCC(Cl)C6)o5)cc34)cc2Cl)c1 (stereo not shown) [MS 9, N-(3-chloro-4-((3-fluorobenzyl)oxy)phenyl)-6-(5-((((3-chlorocyclohexyl)methyl)amino)methyl)-2-furyl)-4-quinazolinamine]",IC50,[3],< 10 µM
same,IC50,[1],> 10 µM
same,IC50,[2],< 10 µM
"Fc1cccc(COc2ccc(Nc3ncnc4ccc(-c5ccc(CNCC6CCCCC6)o5)cc34)cc2Cl)c1 [MS 7, N-(3-chloro-4-((3-fluorobenzyl)oxy)phenyl)-6-((5-((cyclohexylmethyl)amino)methyl)-2-furyl)-4-quinazolinamine]",IC50,[3],< 10 µM
same,IC50,[1],> 10 µM
same,IC50,[2],< 10 µM
"OCCCCNCc1ccc(-c2ccc3ncnc(Nc4ccc(OCc5cccc(F)c5)c(Cl)c4)c3c2)o1 [MS1·dimethanesulfonate, N-(3-chloro-4-((3-fluorobenzyl)oxy)phenyl)-6-(5-(((4-hydroxybutyl)amino)methyl)-2-furyl)-4-quinazolinamine]",IC50,[3],< 10 µM
same,IC50,ErbB-4,< 10 µM
same,IC50,[1],< 10 µM
same,IC50,[2],< 10 µM
"OCC(O)CNCc1ccc(-c2ccc3ncnc(Nc4ccc(OCc5cccc(F)c5)c(Cl)c4)c3c2)o1 (stereo not shown) [MS31·dimethanesulfonate, N-(3-chloro-4-((3-fluorobenzyl)oxy)phenyl)-6-(5-((1-(2,3-dihydroxypropyl)amino)methyl)-2-furyl)-4-quinazolinamine]",IC50,[3],< 10 µM
same,IC50,ErbB-4,< 10 µM
same,IC50,[1],< 10 µM
same,IC50,[2],< 10 µM
"OCC(O)CNCc1ccc(-c2ccc3ncnc(Nc4ccc(OCc5cccc(F)c5)c(Cl)c4)c3c2)o1 (stereo not shown) [MS31, N-(3-chloro-4-((3-fluorobenzyl)oxy)phenyl)-6-(5-(1-(2,3-dihydroxypropyl)amino)methyl-2-furyl)-4-quinazolinamine]",inhibitory activity against KDR (in words),[3],better inhibitory activity; also recorded: higher inhibitory activity
OCCCNCc1ccc(-c2ccc3ncnc(Nc4ccc(OCc5cccc(F)c5)c(Cl)c4)c3c2)o1 [MS42],inhibitory activity against KDR (in words),[3],better inhibitory activity; also recorded: higher inhibitory activity
"OCCCCNCc1ccc(-c2ccc3ncnc(Nc4ccc(OCc5cccc(F)c5)c(Cl)c4)c3c2)o1 [MS1, N-(3-chloro-4-((3-fluorobenzyl)oxy)phenyl)-6-(5-(((4-hydroxybutyl)amino)methyl)-2-furyl)-4-quinazolinamine]",inhibitory activity against KDR (in words),[3],better inhibitory activity; also recorded: higher inhibitory activity
"CC=CCNCc1ccc(-c2ccc3ncnc(Nc4ccc(F)c(Cl)c4)c3c2)o1 [MS 39, N-(3-chloro-4-fluorophenyl)-6-(5-(((2-butenyl)amino)methyl)-2-furyl)-4-quinazolinamine]",IC50,[3],> 10 µM
same,IC50,[1],< 10 µM
"OCCNCc1ccc(-c2ccc3ncnc(Nc4ccc(OCc5cccc(F)c5)c(Cl)c4)c3c2)o1 [MS27, N-(3-chloro-4-((3-fluorobenzyl)oxy)phenyl)-6-(5-(((2-hydroxyethyl)amino)methyl)-2-furyl)-4-quinazolinamine]",inhibitory activity against KDR (in words),[3],better inhibitory activity; also recorded: higher inhibitory activity
same,growth inhibition of human lung cancer A549 compared with positive control lapatinib (in words),[4],better effective inhibition; also recorded: better growth inhibition effect
"Fc1ccc(Nc2ncnc3ccc(-c4ccc(CNCCC5=CCCCC5)o4)cc23)cc1Cl [MS41, N-(3-chloro-4-fluorophenyl)-6-(5-(((2-(cyclohexenyl)ethyl)amino)methyl)-2-furyl)-4-quinazolinamine]",IC50,[3],> 10 µM
same,IC50,[1],< 10 µM
"Fc1cccc(COc2ccc(Nc3ncnc4ccc(-c5ccc(CNCCc6cccc(Cl)c6)o5)cc34)cc2Cl)c1 [MS 20, N-(3-chloro-4-((3-fluorobenzyl)oxy)phenyl)-6-(5-(((2-(3-chlorophenyl)ethyl)amino)methyl)-2-furyl)-4-quinazolinamine]",IC50,[3],> 10 µM
same,IC50,[1],< 10 µM
same,IC50,[2],< 10 µM
"OCC(CO)NCc1ccc(-c2ccc3ncnc(Nc4ccc(OCc5cccc(F)c5)c(Cl)c4)c3c2)o1 [MS6, N-(3-chloro-4-((3-fluorobenzyl)oxy)phenyl)-6-(5-((2-(1,3-dihydroxypropyl)amino)methyl)-2-furyl)-4-quinazolinamine]",inhibitory activity against KDR (in words),[3],better inhibitory activity; also recorded: higher inhibitory activity
same,growth inhibition of human lung cancer A549 compared with positive control lapatinib (in words),[4],better effective inhibition; also recorded: better growth inhibition effect
"CSCCC(NCc1ccc(-c2ccc3ncnc(Nc4ccc(OCc5cccc(F)c5)c(Cl)c4)c3c2)o1)C(=O)O (stereo not shown) [MS 26, N-(3-chloro-4-((3-fluorobenzyl)oxy)phenyl)-6-(5-((((1-carboxy-3-methylthio)propyl)amino)methyl)-2-furyl)-4-quinazolinamine]",growth inhibition of human lung cancer A549 compared with positive control lapatinib (in words),[4],better effective inhibition
same,IC50,[1],< 10 µM
same,IC50,[2],< 10 µM
"CCCNCc1ccc(-c2ccc3ncnc(Nc4ccc(F)c(Cl)c4)c3c2)o1 [MS 36, N-(3-chloro-4-fluorophenyl)-6-(5-(((propyl)amino)methyl)-2-furyl)-4-quinazolinamine]",IC50,[3],> 10 µM
same,TV (mm^3) End,"[4]; A549 xenograft, 200 mg/kg intragastric, 5 times per week for four weeks, end",770.3 ± 212.8^▴ mm^3
same,TV (mm^3) Start,"[4]; A549 xenograft, 200 mg/kg intragastric, start of dosing",155.5 ± 72.8 mm^3
same,T/C (%),"[4]; A549 xenograft, relative tumor growth ratio, 200 mg/kg intragastric, 5 times per week for four weeks",36.1%
same,Weight (g) End,"[4]; nude mice with A549 xenograft, 200 mg/kg intragastric, 5 times per week for four weeks, end",25.0 ± 1.8 g
same,Weight (g) Start,"[4]; nude mice with A549 xenograft, 200 mg/kg intragastric, start of dosing",24.5 ± 1.8 g
same,growth inhibition of human lung cancer A549 compared with positive control lapatinib (in words),[4],better growth inhibition effect
same,IC50,[1],< 10 µM

# Reference: patent publication US9499530B2 (HANGZHOU MINSHENG INSTITUTES FOR PHARMA RESEARCH, priority 2011, dated 2016)
